Measured values reported in patent US20040197932A1, “Bio-vehicle, biosensor and biotransducer system” (priority 2003, published 2004).

Test system: major urinary protein (MUP)
Assay: QCM ligand-binding test: shift of resonant frequency on binding of evaporated ligand to immobilized MUP
Set-up: species or system mouse
Settings: MUP immobilized on 10 MHz AT-cut QCM chip; odorant sample evaporated at 50° C. and pumped into detection chamber
Description: The preferred electronic nose technology of the present invention is piezoelectric-based. Measurements are performed by detecting the binding of analytes (ligands) onto the sensing elements immobilized on piezoelectric materials, e.g., quartz crystal. The adsorption of ligand induces a shift in the oscillation frequency proportional to the mass of the encountered ligand. The operating performance of the present invention is described as bellow:
Gold electrodes of quartz crystal microbalance (QCM) surface are cleaned by immersing in 1.2 N NaOH and then in 1.2 N HCl. After rinsing and drying, the QCM electrodes are soaked in 1 mM 2-aminoethanethiol/DMSO solution for 12 hours and washed by double distilled water for 10 min. Then the QCM electrodes are dried in oven and dripped with 4 μl of 2.5% glutaldehyde for 1 hour. Two μl of 1% polyethylenimine/methanol (PEI/MeOH) solution are added onto activated surface of QCM in a closed chamber at room temperature for 12 hours. Finally, the QCM chips are washed two times and dried in oven.
Activated QCM chips are dipped in 2.5% glutaldehyde solution for 1 hour, and then MUP solution (20 μg/ml in 10 mM phosphate buffer, pH 7.4) are added and kept for 1 hour. Blocking the activated surface of QCM chips is performed by 100 mM glycine.
A sample is respectively applied in a syringe and kept in an oven at 50° C. An AT-cut QCM device with basic resonant frequency of 10 MHz is employed to determine the adsorption of odorant vapor. The evaporated odorant sample is pumped into the detection chamber of QCM and the shift of resonant frequency is recorded.
A variety of ligands are surveyed according to the above procedures. Table I lists the changes of signal in frequency upon the bindings of different ligands, including phenylacetate, propylbutyrate, hexylbutyrate, benzylbutyrate, propyltiglate, hexyltiglate, and benzyltiglate.

Change of Signal (in frequency f)	Structure (SMILES)
43	C/C=C(\C)C(=O)OCc1ccccc1 [benzyltiglate]
55	C/C=C(\C)C(=O)OCCCCCC [hexyltiglate]
29	C/C=C(\C)C(=O)OCCC [propyltiglate]
23	CCCCCCOC(=O)CCC [hexylbutyrate]
43	CCCC(=O)OCc1ccccc1 [benzylbutyrate]

Structure (SMILES)	Change of Signal (in frequency f)
CCCOC(=O)CCC [propylbutyrate]	26
